For 16 compounds, EC50 and Emax results are on record in patent US9834542B2, “LXR modulators” (BRISTOL-MYERS SQUIBB COMPANY, priority 2013, dated 2017).

As a reminder, the EC50 is the concentration at which the effect is half-maximal. A higher EC50 goes with lower potency in that assay.

This experiment concerns the target T1, LXRβ (Homo sapiens, UniProt P55055).
T1 construct: Co-transfection expression plasmids, comprising full-length LXRα (pCMX-h LXRα[…] or LXRβ (pCMX-hLXRβ)); expressed in transfected cells; host or cells: CV-1 African Green Monkey Kidney Cells
T1 sequence (P55055 1-460): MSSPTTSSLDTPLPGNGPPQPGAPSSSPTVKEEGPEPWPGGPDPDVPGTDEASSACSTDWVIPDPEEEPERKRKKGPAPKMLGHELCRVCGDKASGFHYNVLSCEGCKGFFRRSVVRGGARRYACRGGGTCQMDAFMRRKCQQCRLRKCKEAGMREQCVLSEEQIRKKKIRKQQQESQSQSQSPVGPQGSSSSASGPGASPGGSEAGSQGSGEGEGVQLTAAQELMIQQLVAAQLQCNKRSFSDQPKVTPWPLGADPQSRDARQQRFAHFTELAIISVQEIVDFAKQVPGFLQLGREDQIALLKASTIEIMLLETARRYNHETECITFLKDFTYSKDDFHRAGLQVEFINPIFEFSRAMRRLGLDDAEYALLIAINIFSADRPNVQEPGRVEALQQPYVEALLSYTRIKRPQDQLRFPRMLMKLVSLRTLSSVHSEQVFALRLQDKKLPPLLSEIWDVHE
T1 sequence (P19793 1-462 partner): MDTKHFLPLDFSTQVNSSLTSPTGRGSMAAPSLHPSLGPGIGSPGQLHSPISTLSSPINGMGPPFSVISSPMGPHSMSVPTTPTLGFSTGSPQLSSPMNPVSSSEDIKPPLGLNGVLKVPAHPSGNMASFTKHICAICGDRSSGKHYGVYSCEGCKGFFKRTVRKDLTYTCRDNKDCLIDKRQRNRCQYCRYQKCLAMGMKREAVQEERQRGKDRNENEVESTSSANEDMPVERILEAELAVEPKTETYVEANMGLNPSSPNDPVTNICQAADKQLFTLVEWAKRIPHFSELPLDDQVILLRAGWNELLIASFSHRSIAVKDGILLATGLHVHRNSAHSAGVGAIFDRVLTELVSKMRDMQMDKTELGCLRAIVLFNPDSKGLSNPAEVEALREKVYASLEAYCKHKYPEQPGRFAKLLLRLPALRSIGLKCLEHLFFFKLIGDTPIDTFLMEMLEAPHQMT
Nature of the experiment: Co-transfection assay (LXRE luciferase reporter), LXRβ. The class given is cell-based. The following applies: for EC50: CV-1 cells transfected with pCMX-hLXRβ and LXREx1-Tk-Luciferase, 20 hours incubation; for Emax: LXRβ co-transfection, relative to high control 1-(2,4-difluorobenzyl)-2-oxo-6-(4-phenoxyphenyl)-4-(trifluoromethyl)-1,2-dihydropyridine-3-carbonitrile, read-out: % Efficacy. Put shortly:
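CV-1 cells transiently co-transfected with full-length human LXRβ (or LXRα), LXREx1-Tk-luciferase reporter and β-galactosidase control; compound added (10 μM final in single-point, 11-point ½-log curves, ≤0.5% DMSO) for 20 h at 37 °C. Luciferase read; EC50 from four-parameter fit, efficacy relative to reference agonist high control.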
For orientation: Reporter assays use an easily measured gene product as a stand-in for the process of interest.

Regarding `CCc1nc(C(F)(F)F)cn1-c1ccc(-c2cccc(S(C)(=O)=O)c2)cc1-n1nncc1-c1ccc(OC(F)(F)F)cc1` [Example 227, 1-(4-(2-ethyl-4-(trifluoromethyl)-1H-imidazol-1-yl)-3′-(methylsulfonyl)-[1,1′-biphenyl]-3-yl)-5-(4-(trifluoromethoxy)phenyl)-1H-1,2,3-triazole], a half-maximal effect (EC50) was put at 865 nM and the Emax was determined as 118%.
In the same order, the values of `Cc1nc(C2CC2)cn1-c1ccc(-c2cccc(S(C)(=O)=O)c2)cc1-n1nncc1-c1ccc(Cl)cc1` [Example 228, 5-(4-chlorophenyl)-1-(4-(4-cyclopropyl-2-methyl-1H-imidazol-1-yl)-3′-(methylsulfonyl)-[1,1′-biphenyl]-3-yl)-1H-1,2,3-triazole] are 2560 nM and 67%.
On the same counts, the results for `Cc1nc(C2CC2)cn1-c1ccc(-c2cccc(S(C)(=O)=O)c2)cc1-n1nncc1-c1ccc(OC(F)(F)F)cc1` [Example 229, 1-(4-(4-cyclopropyl-2-methyl-1H-imidazol-1-yl)-3′-(methylsulfonyl)-[1,1′-biphenyl]-3-yl)-5-(4-(trifluoromethoxy)phenyl)-1H-1,2,3-triazole] are 949 nM and 72%.
As to `Cc1nc(C(F)F)c(C)n1-c1ccc(-c2cccc(S(C)(=O)=O)c2)cc1-n1nncc1-c1ccc(Cl)cc1` [Example 230, 5-(4-chlorophenyl)-1-(4-(4-(difluoromethyl)-2,5-dimethyl-1H-imidazol-1-yl)-3′-(methylsulfonyl)-[1,1′-biphenyl]-3-yl)-1H-1,2,3-triazole], the midpoint of the response, the EC50, lay at 2050 nM and the Emax was 24%.
Turning to `Cc1nc(C(F)F)c(C)n1-c1ccc(-c2cc(F)c(CO)c(S(C)(=O)=O)c2)cc1-n1nncc1-c1ccc(Cl)cc1` [Example 231, (3′-(5-(4-chlorophenyl)-1H-1,2,3-triazol-1-yl)-4′-(4-(difluoromethyl)-2,5-dimethyl-1H-imidazol-1-yl)-3-fluoro-5-(methylsulfonyl)-[1,1′-biphenyl]-4-yl)methanol], the EC50 is 1680 nM and the Emax was 37%.
Consider `Cc1nc(C(F)F)c(C)n1-c1ccc(-c2cccc(S(C)(=O)=O)c2)cc1-n1nncc1-c1ccc(OC(F)(F)F)cc1` [Example 232, 1-(4-(4-(difluoromethyl)-2,5-dimethyl-1H-imidazol-1-yl)-3′-(methylsulfonyl)-[1,1′-biphenyl]-3-yl)-5-(4-(trifluoromethoxy)phenyl)-1H-1,2,3-triazole], for which it took 1970 nM to reach a half-maximal effect (EC50) and the Emax was determined as 74%.
In the same order, the values of `Cc1nc(C(F)F)c(C)n1-c1ccc(-c2cc(F)c(CO)c(S(C)(=O)=O)c2)cc1-n1nncc1-c1ccc(OC(F)(F)F)cc1` [Example 233, (4′-(4-(difluoromethyl)-2,5-dimethyl-1H-imidazol-1-yl)-3-fluoro-5-(methylsulfonyl)-3′-(5-(4-(trifluoromethoxy)phenyl)-1H-1,2,3-triazol-1-yl)-[1,1′-biphenyl]-4-yl)methanol] are 1340 nM and 92%.
In the same order, the values of `Cc1nc(C(=O)C(C)C)cn1-c1ccc(-c2cccc(S(C)(=O)=O)c2)cc1-n1nncc1-c1ccc(OC(F)(F)F)cc1` [Example 234, 2-methyl-1-(2-methyl-1-(3′-(methylsulfonyl)-3-(5-(4-(trifluoromethoxy)phenyl)-1H-1,2,3-triazol-1-yl)-[1,1′-biphenyl]-4-yl)-1H-imidazol-4-yl)propan-1-one] are 1200 nM and 75%.
`Cc1nc(C(=O)C(C)C)cn1-c1ccc(-c2cc(F)c(CO)c(S(C)(=O)=O)c2)cc1-n1nncc1-c1ccc(OC(F)(F)F)cc1` [Example 235, 1-(1-(3′-fluoro-4′-(hydroxymethyl)-5′-(methylsulfonyl)-3-(5-(4-(trifluoromethoxy)phenyl)-1H-1,2,3-triazol-1-yl)-[1,1′-biphenyl]-4-yl)-2-methyl-1H-imidazol-4-yl)-2-methylpropan-1-one]: the midpoint of the response, the EC50, lay at 2270 nM and the Emax amounted to 85%.
In the same order, the values of `Cc1nc(C(F)(F)F)cn1-c1ccc(-c2ccc(CCO)c(S(C)(=O)=O)c2)cc1-n1nncc1-c1ccc(OC(F)(F)F)cc1` [Example 236, 2-(4′-(2-methyl-4-(trifluoromethyl)-1H-imidazol-1-yl)-3-(methylsulfonyl)-3′-(5-(4-(trifluoromethoxy)phenyl)-1H-1,2,3-triazol-1-yl)-[1,1′-biphenyl]-4-yl)ethanol] are 198 nM and 89%.
In the same order, the values of `Cc1nc(C(F)(F)F)cn1-c1ccc(-c2cc(F)c(CCO)c(S(C)(=O)=O)c2)cc1-n1nncc1-c1ccc(OC(F)(F)F)cc1` [Example 237, 2-(3-fluoro-4′-(2-methyl-4-(trifluoromethyl)-1H-imidazol-1-yl)-5-(methylsulfonyl)-3′-(5-(4-(trifluoromethoxy)phenyl)-1H-1,2,3-triazol-1-yl)-[1,1′-biphenyl]-4-yl)ethanol] are 192 nM and 98%.
In the same order, the values of `COCS(=O)(=O)c1cccc(-c2ccc(-n3cc(C(F)(F)F)nc3C)c(-n3nncc3-c3ccc(OC(F)(F)F)cc3)c2)c1` [Example 238, 1-(3′-((methoxymethyl)sulfonyl)-4-(2-methyl-4-(trifluoromethyl)-1H-imidazol-1-yl)-[1,1′-biphenyl]-3-yl)-5-(4-(trifluoromethoxy)phenyl)-1H-1,2,3-triazole] are 489 nM and 90%.
With `Cc1nc(C(F)(F)F)c(Cl)n1-c1ccc(-c2cc(F)c(CO)c(S(C)(=O)=O)c2)cc1-c1cnnn1-c1ccc(Cl)cc1` [Example 240, {4′-[5-chloro-2-methyl-4-(trifluoromethyl)-1H-imidazol-1-yl]-3′-[1-(4-chlorophenyl)-1H-1,2,3-triazol-5-yl]-3-fluoro-5-(methylsulfonyl)biphenyl-4-yl}methanol], the midpoint of the response, the EC50, lay at 142 nM and the Emax was determined as 129%.
On the same counts, the results for `Cc1nc(C(F)(F)F)cn1-c1ccc(-c2cccc(C(C)(C)C(N)=O)c2)cc1-c1cnnn1-c1ccc(OC(F)(F)F)cc1` [Example 241, 2-methyl-2-{4′-[2-methyl-4-(trifluoromethyl)-1H-imidazol-1-yl]-3′-(1-{4-[(trifluoromethyl)oxy]phenyl}-1H-1,2,3-triazol-5-yl)biphenyl-3-yl}propanamide] are 405 nM and 111%.
In the same order, the values of `Cc1nc(C(F)(F)F)cn1-c1ccc(-c2cccc(S(C)(=O)=O)c2)cc1-c1cnnn1-c1ccc(OC(F)(F)F)cc1` [Example 242, 5-{3′-(methylsulfonyl)-4-[2-methyl-4-(trifluoromethyl)-1H-imidazol-1-yl]biphenyl-3-yl}-1-{4-[(trifluoromethyl)oxy]phenyl}-1H-1,2,3-triazole] are 201 nM and 105%.
On the same counts, the results for `Cc1nc(C(F)(F)F)c(Cl)n1-c1ccc(-c2cccc(S(C)(=O)=O)c2)cc1-c1cnnn1-c1ccc(Cl)cc1` [Example 243, 5-{4-[5-chloro-2-methyl-4-(trifluoromethyl)-1H-imidazol-1-yl]-3′-(methylsulfonyl)biphenyl-3-yl}-1-(4-chlorophenyl)-1H-1,2,3-triazole] are 238 nM and 107%.
